Test results from article PMC9101642 (Molecules, 2022).
Marks after values point to notes of the source that are not given here.

Legend:
[1] = Serum biochemical markers after treatment of MNU-induced rats; format: in vivo, Wistar rats; design: TBC: unit not given here; conditions: for ALP (A/L) / ALT (A/L) / AST (U/L) / γ-GT (U/L): serum; for TBC: total bilirubin content
Summary of the method: (§1)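 Mammary tumours induced in rats by MNU 50 mg/kg i.p. at day 50; after two weeks, compounds given orally at 5 or 50 mg/kg once daily for six weeks. Serum AST, ALT (340 nm), ALP (405 nm) and bilirubin measured; liver homogenate GSH, CAT, MDA by colorimetry; plasma binding by ultrafiltration at 37°C with BCA protein read-out.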

[2] = system: Ishikawa endometrial adenocarcinoma cells; assay: Antiproliferative assay; format: cell-based; conditions: Homo sapiens, growth inhibition
ERβ = ERβ (Homo sapiens, UniProt Q92731); assay: Fluorescence polarization competition assay: antagonistic potency and relative binding affinity; conditions: for Ki: calculated antagonistic (inhibitory) constant, read-out: Ka ERβ; for IC50: concentration that antagonizes 50% of ERβ signaling activity, read-out: ERβ (IC50 nM); for logRBA ERβ: log of % relative binding affinity, estradiol = 100%
Chain of ERβ (Q92731 whole entry): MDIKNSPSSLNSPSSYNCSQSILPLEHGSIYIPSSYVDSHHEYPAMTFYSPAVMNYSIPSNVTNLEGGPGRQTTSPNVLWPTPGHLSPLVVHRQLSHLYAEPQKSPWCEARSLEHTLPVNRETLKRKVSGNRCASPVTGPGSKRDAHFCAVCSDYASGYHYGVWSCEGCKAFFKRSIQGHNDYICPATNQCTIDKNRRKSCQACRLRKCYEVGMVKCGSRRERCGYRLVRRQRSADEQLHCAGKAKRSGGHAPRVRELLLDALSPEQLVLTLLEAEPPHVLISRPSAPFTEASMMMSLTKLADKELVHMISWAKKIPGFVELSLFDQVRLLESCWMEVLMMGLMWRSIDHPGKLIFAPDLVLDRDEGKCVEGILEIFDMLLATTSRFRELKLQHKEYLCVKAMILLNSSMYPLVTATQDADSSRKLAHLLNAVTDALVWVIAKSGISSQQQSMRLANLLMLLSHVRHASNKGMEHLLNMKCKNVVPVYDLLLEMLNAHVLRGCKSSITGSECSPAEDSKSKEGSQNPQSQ

[3] = Liver oxidative stress markers after treatment of MNU-induced rats; format: in vivo, Wistar rats; design: CAT: unit not given here; conditions: liver; for CAT: catalase activity; for GSH: reduced glutathione; for SOD (U/mg): superoxide dismutase activity; for TP: total protein content
Summary of the method: as §1

[4] = system: MNU-induced breast cancer; assay: In vivo anticancer screening, MNU-induced mammary tumorigenesis; design: species or system female Wistar rats
[5] = MTT antiproliferative assay (neutral control); conditions: human
[6] = system: MNU-induced breast cancer tissue; assay: Histopathology of breast sections; format: in vivo, Wistar rats
Summary of the method: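 Rats with MNU-induced breast cancer were given selected leads at two concentrations. Breast tissue was examined histopathologically for lobuloalveolar units and epithelial changes, with slides photographed at 200x.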

MDA-MB-231 cell lines = assay: MTT antiproliferative assay; format: cell-based, human; conditions: Homo sapiens, MDA-MB-231; growth inhibition, 48 h; read-out: MDA-MB-231 (IC50 nM)
[7] = system: progesterone receptor (PR); assay: ERα functional antagonism cell assay (PR as biomarker) in MCF-7; format: cell-based; conditions: Homo sapiens, MCF7; progesterone receptor as biomarker for ERα antagonism in MCF-7
ERα = biological target: T1, ERα (Homo sapiens, UniProt P03372); assay: ERα down-regulation immunofluorescence assay in MCF-7; format: cell-based; conditions: ERα downregulation measured in MCF-7; read-out: MCF-7 DR (IC50 nM)
T1 sequence (P03372 1-595): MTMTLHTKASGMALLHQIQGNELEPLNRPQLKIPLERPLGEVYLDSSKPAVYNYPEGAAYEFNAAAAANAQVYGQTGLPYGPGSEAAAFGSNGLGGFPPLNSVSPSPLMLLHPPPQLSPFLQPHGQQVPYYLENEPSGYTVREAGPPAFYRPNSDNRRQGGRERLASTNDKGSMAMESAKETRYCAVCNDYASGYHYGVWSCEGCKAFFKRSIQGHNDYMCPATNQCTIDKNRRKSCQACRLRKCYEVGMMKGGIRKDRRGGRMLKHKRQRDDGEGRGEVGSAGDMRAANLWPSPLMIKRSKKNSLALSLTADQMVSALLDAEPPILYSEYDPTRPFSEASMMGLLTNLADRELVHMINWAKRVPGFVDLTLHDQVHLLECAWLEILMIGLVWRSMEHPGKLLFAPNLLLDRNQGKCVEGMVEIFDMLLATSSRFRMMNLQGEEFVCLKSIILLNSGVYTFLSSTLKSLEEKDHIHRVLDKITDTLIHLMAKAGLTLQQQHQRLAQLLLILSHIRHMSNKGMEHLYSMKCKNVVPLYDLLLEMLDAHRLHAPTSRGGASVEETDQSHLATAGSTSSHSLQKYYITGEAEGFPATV

MCF-7 cell lines = assay: MTT antiproliferative assay; format: cell-based, human; conditions: for IC50: Homo sapiens, MCF7, growth inhibition, 48 h, read-out: MCF-7 (IC50 nM)
[8] = dose 50 mg/kg (compounds per os after MNU; MNU alone i.p.)

Question: With `CC(=O)c1cc(C(=O)O[C@@H]2/C=C/C(=O)O[C@@H](O)CCC/C=C/[C@@H]3C[C@H](O)C[C@H]32)ccc1OCCN1CC(C(=O)O)=CCC1=O` [Compound 3DPQ-9, 1-(2-(2-acetyl-4-((((1R,2E,6R,10E,11aS,13S,14aR)-6,13-dihydroxy-4-oxo-4,6,7,8,9,11a,12,13,14,14a-decahydro-1H-cyclopenta[f][1]oxacyclotridecin-1-yl)oxy)carbonyl)phenoxy)ethyl)-6-oxo-1,2,5,6-tetrahydropyridine-3-carboxylic acid] as the molecule, how does the “ALP (A/L)” value ([1]; dose 5 mg/kg) read?
Answer: 125.54±0.21 A/L

Question: And the “ALT (A/L)” value ([1]; dose 5 mg/kg)?
Answer: 46.58±0.94 A/L

Question: What about the “AST (U/L)” value ([1]; dose 5 mg/kg) of the same molecule?
Answer: 64.52±0.43 U/L

Question: What about the “γ-GT (U/L)” value ([1]; dose 5 mg/kg) of the same molecule?
Answer: 10.32 U/L

Question: What about the “ALP (A/L)” value ([1]; dose 50 mg/kg) of the same molecule?
Answer: 139.42±0.31 A/L

Question: And the “ALT (A/L)” value ([1]; dose 50 mg/kg)?
Answer: 51.95±0.86 A/L

Question: What about the “AST (U/L)” value ([1]; dose 50 mg/kg) of the same molecule?
Answer: 69.76±0.74 U/L

Question: What about the “γ-GT (U/L)” value ([1]; dose 50 mg/kg) of the same molecule?
Answer: 12.36±0.53 U/L

Question: And the TBC ([1]; dose 5 mg/kg)?
Answer: 22.33

Question: And the TBC ([1]; dose 50 mg/kg)?
Answer: 24.46

Question: What about the IC50 [2] of the same molecule?
Answer: 0.89 ± 0.24 nM

Question: What about the Ki (ERβ) of the same molecule?
Answer: 46.9 nM

Question: And the IC50 (ERβ)?
Answer: 83.56 ± 0.46 nM

Question: What about the “logRBA ERβ” value (ERβ) of the same molecule?
Answer: 0.03 ^†,‡,§

Question: And the CAT ([3]; dose 5 mg/kg)?
Answer: 10.83±0.46

Question: And the CAT ([3]; dose 50 mg/kg)?
Answer: 13.32±0.54

Question: And the “TBARS” value ([3]; dose 5 mg/kg)?
Answer: 0.96 nmol/mg

Question: And the “TBARS” value ([3]; dose 50 mg/kg)?
Answer: 0.96 ± 0.24 nmol/mg

Question: What about the “GSH” value ([3]; dose 5 mg/kg) of the same molecule?
Answer: 8.66 mg/g

Question: What about the “GSH” value ([3]; dose 50 mg/kg) of the same molecule?
Answer: 8.89 mg/g

Question: What about the “SOD (U/mg)” value ([3]; dose 5 mg/kg) of the same molecule?
Answer: 7.74±0.37 U/mg

Question: And the “SOD (U/mg)” value ([3]; dose 50 mg/kg)?
Answer: 14.43±0.35 U/mg

Question: And the “TP” value ([3]; dose 50 mg/kg)?
Answer: 39.43 g/L

Question: And the “Tumor Burden (week)” value ([4]; dose 5 mg/kg per os after MNU)?
Answer: 2.28 ± 0.47 *^,†,‡,‖ week

Question: And the “Tumor Latency (week)” value ([4]; dose 5 mg/kg per os after MNU)?
Answer: 12 *^,†,‡ week

Question: What about the “Tumor Volume (mm^3)” value ([4]; dose 5 mg/kg per os after MNU) of the same molecule?
Answer: 0.77 ± 0.32 *^,†,‡,‖ mm^3

Question: And the “Tumor Burden (week)” value [4, 8]?
Answer: 1.14 ± 0.65 *^,†,§,┴ week

Question: What about the “Tumor Latency (week)” value [4, 8] of the same molecule?
Answer: 15 *^,†,§ week

Question: What about the “Tumor Volume (mm^3)” value [4, 8] of the same molecule?
Answer: 0.40 ± 0.43 *^,†,§,┴ mm^3

Question: And the IC50 at 48 h ([5]; MRC-5 lung fibroblast cells)?
Answer: > 100 nM

Question: What about the breast section histopathology ([6]; 5 mg/kg of bwt) of the same molecule?
Answer: lobuloalveolar unit (LaU) and cuboidal epithelial cells (CE)

Question: What about the breast section histopathology ([6]; 50 mg/kg of bwt) of the same molecule?
Answer: lobuloalveolar unit (LaU) and cuboidal epithelial cells (CE)

Question: What about the IC50 (MDA-MB-231 cell lines) of the same molecule?
Answer: 81.63 ± 0.42 nM

Question: And the IC50 [7]?
Answer: > 100 nM

Question: And the IC50 (ERα)?
Answer: > 100 nM

Question: And the IC50 (MCF-7 cell lines)?
Answer: 0.62 ± 0.15 nM

Question: What about the “MCF-7 antiproliferative potency, fold higher than Ral” value (MCF-7 cell lines; ratio of IC50 values) of the same molecule?
Answer: 1.46 fold

Question: And the “MCF-7 antiproliferative potency, fold lower than 3DPQ-12” value (MCF-7 cell lines; ratio of IC50 values)?
Answer: 1.09 fold

Question: What does the source list for `CC(=O)c1cc(C(=O)O[C@@H]2/C=C/C(=O)O[C@@H](O)CCC/C=C/[C@@H]3C[C@H](O)C[C@H]32)ccc1OCCN1CCCC(O)C1=O` (stereo partly drawn) [Compound 3DPQ-12, (1R,2E,6R,10E,11aS,13S,14aR)-6,13-dihydroxy-4-oxo-4,6,7,8,9,11a,12,13,14,14a-decahydro-1H-cyclopenta[f][1]oxacyclotridecin-1-yl 3-acetyl-4-(2-(3-hydroxy-2-oxopiperidin-1-yl)ethoxy)benzoate]?
Answer: ALP (A/L) ([1]; dose 5 mg/kg): 132.67±0.43 A/L; ALT (A/L) ([1]; dose 5 mg/kg): 50.99±0.84 A/L; AST (U/L) ([1]; dose 5 mg/kg): 51.54±0.74 U/L; γ-GT (U/L) ([1]; dose 5 mg/kg): 13.53 U/L; ALP (A/L) ([1]; dose 50 mg/kg): 121.33±0.23 A/L; ALT (A/L) ([1]; dose 50 mg/kg): 59.65±0.84 A/L; AST (U/L) ([1]; dose 50 mg/kg): 52.69±0.95 U/L; γ-GT (U/L) ([1]; dose 50 mg/kg): 15.54±0.83 U/L; TBC ([1]; dose 5 mg/kg): 19.28; TBC ([1]; dose 50 mg/kg): 23.43; IC50 [2]: 0.77 ± 0.43 nM; Ki (ERβ): 50.3 nM; IC50 (ERβ): 89.45 ± 0.31 nM; logRBA ERβ (ERβ): 0.00 ^†,‡,§; CAT ([3]; dose 5 mg/kg): 14.55±0.51; CAT ([3]; dose 50 mg/kg): 19.46±0.75; TBARS ([3]; dose 5 mg/kg): 0.92 nmol/mg; TBARS ([3]; dose 50 mg/kg): 1.05 nmol/mg; GSH ([3]; dose 5 mg/kg): 8.96 mg/g; GSH ([3]; dose 50 mg/kg): 9.02 mg/g; SOD (U/mg) ([3]; dose 5 mg/kg): 5.43±0.25 U/mg; SOD (U/mg) ([3]; dose 50 mg/kg): 13.32±0.43 U/mg; TP ([3]; dose 5 mg/kg): 336.12 g/L; TP ([3]; dose 50 mg/kg): 389.35 g/L; Tumor Burden (week) ([4]; dose 5 mg/kg per os after MNU): 2.24 ± 0.54 *^,†,‡,‖ week; Tumor Latency (week) ([4]; dose 5 mg/kg per os after MNU): 12 *^,†,‡ week; Tumor Volume (mm^3) ([4]; dose 5 mg/kg per os after MNU): 0.67 ± 0.22 *^,†,‡,‖ mm^3; Tumor Burden (week) [4, 8]: 0.94 ± 0.35 *^,†,§,┴ week; Tumor Latency (week) [4, 8]: 15 *^,†,§ week; Tumor Volume (mm^3) [4, 8]: 0.34 ± 0.11 *^,†,§,┴ mm^3; IC50 at 48 h [5]: > 100 nM; breast section histopathology ([6]; 5 mg/kg of bwt): lobuloalveolar unit (LaU) and cuboidal epithelial cells (CE); breast section histopathology ([6]; 50 mg/kg of bwt): lobuloalveolar unit (LaU) and cuboidal epithelial cells (CE); IC50 (MDA-MB-231 cell lines): 82.84 ± 0.61 nM; IC50 [7]: > 100 nM; IC50 (ERα): > 100 nM; IC50 (MCF-7 cell lines): 0.56 ± 0.11 nM
